The source of these data is patent US5241065A, “2,3,4,5-tetrahydro-1H-3-benzazepines having anti-psychotic activity” (Schering Corporation, priority 1992, dated 1993).

The structures appear in SMILES notation. Like-named read-outs stand apart in the source and are kept apart here.

In one data set the target is T1, D-2 receptor (Rattus norvegicus, UniProt P61169).
T1 construct: Striatal tissue was excised, pooled, and homogenized; from tissue; host or cells: rat striatum (Sprague-Dawley), washed membrane homogenate
Description: Competitive inhibition assay, 3H-spiperone binding to rat striatal tissue (D-2). Also noted: species or system Male Sprague-Dawley rats. The note with it: rat striatal homogenate, 0.2 nM 3H-spiperone, pH 7.4, 37° C., 15 minutes, read-out: Ki against 3H-spiperone. The text has this:
(§1) Many compounds capable of effecting reproducible physiological changes in neural tissues are believed to operate by binding at one or more receptor sites.
(§2) A methodology for characterization of binding and an interpretation of the data are described by Billard et al., Life Sciences 35, 1885 (1984) in which the binding of (R)-(+)-7-chloro-8-hydroxy-3-methyl-1-phenyl-2,3,4,5-tetrahydro-1H-3-benzazepine (SCH 23390) (as its hemi-maleate) to the dopamine D-1 receptor is characterized.
(§3) Tritiated SCH 23390 and tritiated spiperone (a potent D-2 ligand) were obtained as described in the Billard et al. reference supra and serially diluted in 0.05 M Tris buffer, pH 7.4, as required. A compound of the invention was diluted in 0.05 M Tris buffer, pH 7.4, as required.
(§4) Male Sprague-Dawley rats (200 to 250 g) from Charles River Breeding Laboratories, Mass., were used to obtain brain tissue. The rats were humanely sacrificed and their brains removed and placed on ice. Striatal tissue was excised, pooled, and homogenized (Brinkman Polytron, 10 sec) in 100 volumes (w/v) of ice cold 50 mM Tris buffer, pH 7.4 (at 25° C.). The homogenate was centrifuged at 20,000 x g for 10 min. The resulting pellet was re-homogenized in Tris buffer and centrifuged again. The final pellet was resuspended in 50 mM Tris buffer, pH 7.4 containing 120 mM NaCl, 5 mM KCl, 2 mM CaCl2, and 1 mM MgCl2.
(§5) Polypropylene incubation tubes received 100 μl of the individual test compounds at various concentrations dissolved or suspended in 0.05 M Tris buffer, pH 7.4 containing 4 mg/ml methylcellulose, 100 μl of a solution of ^3 H-SCH 23390 in Tris buffer (final reaction mixture concentration=0.3nM) or 100 μl of a solution of ^3 H-spiperone in Tris buffer (final concentration=0.2 nM) and 800 μl of tissue suspension (ca. 3 mg/assay). Tubes were incubated at 37° C. for 15 minutes and rapidly vacuum filtered through Whatman GF/B filters and rinsed 4 times with 4 ml of ice cold 50 mM Tris buffer, pH 7.4. The filters were transferred to scintillation vials, equilibrated with 10 ml of scintillant (Scintosol, Isolab, Inc.) for 16 hours at 25° C., and the radioactivity was determined in a liquid scintillation counter. Ki values were determined as described by Billard et al. using the relationship: K i =IC50 /(1+([…])) wherein IC50 =concentration of test drug necessary to displace 50% of specifically bound ^3 H-SCH 23390, [L]=concentration of radioligand used in the assay, and KD =dissociation constant.

The test system of another data set is rats. Description: Conditioned avoidance response (CAR) suppression in rats. The class given is in vivo. The note with it: Rattus norvegicus, read-out: Rat CAR, minimal effective dose (MED). The procedure:
N.Y. Acad. Sci. 66, 740 (1957)]. A series of experiments was carried out to assess the ability of the compounds of this invention to suppress the conditioned avoidance response (CAR) in rats.
Rats were required to jump onto a platform located 6.75 inches (17.15 cm) above the grid floor of an experimental chamber in response to a 5-second tone to avoid a 10-second foot shock (0.6 ma). Each experimental session consisted of 20 such trials presented at 30-second intervals. A correct CAR is scored whenever the rat jumps onto the platform during the tone (prior to foot shock). An escape response is scored when the rat jumps onto the platform during a shock. A response failure is defined as the lack of an escape response during the 10-second shock period.
Groups of 6-8 rats were trained in two consecutive days (total of 40 trials). Rats that reached criterion on day 2 (correct CARs in 16 or more of the 20 trials) were treated with either a test drug or a vehicle on day 3. Suppression of CAR was analyzed statistically using Student's t-test comparing the performances of drug-treated to vehicle-treated rats.

Another data set relates to rat. Description: Toxicity, rat. The class given is in vivo. Particulars: for Toxicity, rat: result in words, dose in mpk within the value. An excerpt:
The compounds of this invention are substantially non-toxic at the therapeutic close, as is shown in the following Table 4, which compares them with related reference compounds: […]

The next data set addresses T2, dopamine D-1 receptor (Rattus norvegicus, UniProt P18901).
T2 construct: Striatal tissue was excised, pooled, and homogenized; from tissue; host or cells: rat striatum (Sprague-Dawley), washed membrane homogenate
Description: Competitive inhibition assay, 3H-SCH 23390 binding to rat striatal tissue (dopamine D-1). Particulars: rat striatal homogenate, 0.3 nM 3H-SCH 23390, pH 7.4, 37° C., 15 minutes, read-out: Ki against 3H-SCH 23390. Further details: species or system Male Sprague-Dawley rats.
Excerpt: as §1, §2, §3, §4, §5

In the next data set the test system is squirrel monkeys. Description: Suppression of conditioned avoidance response (CAR) in squirrel monkeys. The class given is in vivo. The note with it: Saimiri, in Primates, po, read-out: Monkey CAR, minimal effective dose (MED). An excerpt:
This test is designed to measure the effective duration of candidate compounds.
Male or female squirrel monkeys weighing 800-1200 g housed one per cage are utilized. Initially each monkey is taught to terminate both a 3mA electric shock delivered through the grid floor of the test cage and an overlapping tone by depressing a lever in the cage.
In the second phase of the testing, a ten second tone is turned on prior to the shock component. A lever pass during the sounding of the tone terminates the tone and prevents the occurrence of the shock component and is denoted as an "avoidance".
The compound testing is commenced after three consecutive days of re-testing. […] The monkey must achieve at lest an 85% correct avoidance before drug testing commences. If this minimal avoidance level is achieved, the next day the monkey is orally dosed or injected with the subject compounds in the appropriate vehicle, and the number of avoidances are recorded. An animal is defined as having been "affected" by any drug treatment if there is a 50% loss of avoidance behavior relative to the performance of the animal when only the vehicle is injected. The minimal effective dose (MED) is defined as that dose producing an effect in at least 50% of the animals.
A test may be conducted to determine the effective duration of a compound in accordance with the present invention by comparing a compound of the invention to the known compound SCH 23390. A compound of the invention administered 60 minutes prior to the test is compared to SCH 23390 administered 30 minutes prior to test. The duration of each compound is determined by administering a 12.0 mg/kg p.o. dose six hours prior to testing.

T2 sequence (P18901 whole entry): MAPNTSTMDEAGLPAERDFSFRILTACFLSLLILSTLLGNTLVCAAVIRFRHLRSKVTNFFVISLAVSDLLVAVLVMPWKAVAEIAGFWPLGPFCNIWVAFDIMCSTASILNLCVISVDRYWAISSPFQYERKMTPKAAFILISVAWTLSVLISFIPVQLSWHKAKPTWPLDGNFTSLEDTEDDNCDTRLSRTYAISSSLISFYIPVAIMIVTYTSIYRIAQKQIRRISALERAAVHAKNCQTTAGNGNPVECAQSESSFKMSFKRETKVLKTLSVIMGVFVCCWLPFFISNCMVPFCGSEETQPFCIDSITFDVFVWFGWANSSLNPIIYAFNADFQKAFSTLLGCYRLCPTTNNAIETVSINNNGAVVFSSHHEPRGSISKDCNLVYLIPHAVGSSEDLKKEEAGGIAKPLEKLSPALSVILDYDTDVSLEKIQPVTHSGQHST
T1 sequence (P61169 whole entry): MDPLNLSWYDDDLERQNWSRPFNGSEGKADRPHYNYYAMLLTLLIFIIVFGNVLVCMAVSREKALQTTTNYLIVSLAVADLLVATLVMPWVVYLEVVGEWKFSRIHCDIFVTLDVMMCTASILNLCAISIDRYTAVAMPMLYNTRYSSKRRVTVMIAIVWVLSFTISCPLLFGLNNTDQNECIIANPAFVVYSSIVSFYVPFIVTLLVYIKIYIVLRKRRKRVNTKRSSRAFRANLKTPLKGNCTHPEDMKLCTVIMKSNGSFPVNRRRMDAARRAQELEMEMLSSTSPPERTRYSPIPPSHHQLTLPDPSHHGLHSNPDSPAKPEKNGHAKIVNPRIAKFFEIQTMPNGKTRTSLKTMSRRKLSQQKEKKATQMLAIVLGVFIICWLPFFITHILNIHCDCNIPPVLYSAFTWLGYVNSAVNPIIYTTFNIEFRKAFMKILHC

Turning to `Cc1cc2c(cc1O)C(C1=CCCCC1)CN(C)CC2` (racemic) [A, (R,S)-1-(1-cyclohexenyl)-8-hydroxy-3,7-dimethyl-2,3,4,5-tetrahydro-1H-3-benzazepine, reference compound], the Ki (as a rule, a measure of affinity in units of concentration, obtained from inhibition or displacement) turned out to be 1880 nM on D-2 receptor and 8.7 nM at dopamine D-1 receptor. The minimal effective dose (in general, the lowest level tested that produced the effect sought) in the data set on rats (po (per oral)) was over 30 mg/kg; in the data set on squirrel monkeys, 3 mg/kg; in the data set on squirrel monkeys (at 1 hour), 10 mg/kg. The “Toxicity, rat: salivation” value in the data set on rat (10 mpk po, after 1 hour) is “salivation in 1 of 3 rats”.

In the case of `CC1=C(C2CN(C)CCc3cc(Cl)c(O)cc32)CCC1` (racemic) [G, (R,S)-7-chloro-8-hydroxy-3-methyl-(2-methyl-1-cyclopentenyl)-2,3,4,5-tetrahydro-1H-3-benzazepine], the inhibitory constant (Ki) stood at 656 nM at D-2 receptor and 0.27 nM on dopamine D-1 receptor. The minimal effective dose in the data set on rats (po (per oral)) was found to be 10 mg/kg; with rats (po, at 6 hours), 50 mg/kg; in the data set on rats (sc (subcutaneous)), 0.01 mg/kg; in the data set on squirrel monkeys, 5 mg/kg; in the data set with squirrel monkeys (at 6 hours), 20 mg/kg. Moreover, the “Toxicity, rat” value in the data set with rat is given as “Non-toxic at 300 mpk”.

Take `CN1CCc2cc(Cl)c(O)cc2C(C2=CCCCC2)C1` (racemic) [K, (R,S)-7-chloro-1-(1-cyclohexenyl)-8-hydroxy-3-methyl-2,3,4,5-tetrahydro-1H-3-benzazepine]: the values for the Ki on D-2 receptor and at dopamine D-1 receptor were 1440 nM and 2.2 nM, respectively.

As to `CC1=C(C2CN(C)CCc3cc(Cl)c(O)cc32)CCCC1` (racemic) [N, (R,S)-7-chloro-8-hydroxy-3-methyl-1-(2-methyl-1-cyclohexenyl)-2,3,4,5-tetrahydro-1H-3-benzazepine], the inhibitory constant (Ki) at D-2 receptor worked out at 420 nM; on dopamine D-1 receptor it was 0.83 nM. Moreover, the minimal effective dose in the data set with rats (po (per oral)) was found to be 30 mg/kg.

For `CN1CCc2cc(Cl)c(O)cc2C(C2=CCCC2)C1` (racemic) [Q, (R,S)-7-chloro-1-(1-cyclopentenyl)-8-hydroxy-3-methyl-2,3,4,5-tetrahydro-1H-3-benzazepine], the Ki worked out at 595 nM at D-2 receptor and 2.3 nM on dopamine D-1 receptor.

For the compound `Cc1cc2c(cc1O)[C@H](C1=CCCCC1)CN(C)CC2` [B, (S)-1-(1-cyclohexenyl)-8-hydroxy-3,7-dimethyl-2,3,4,5-tetrahydro-1H-3-benzazepine, reference compound], the inhibition constant Ki at D-2 receptor was 4370 nM; on dopamine D-1 receptor, 101 nM. Moreover, the minimal effective dose in the data set on rats (po (per oral)) is over 30 mg/kg.

As to `Cc1cc2c(cc1O)[C@@H](C1=CCCCC1)CN(C)CC2` [C, (R)-1-(1-cyclohexenyl)-8-hydroxy-3,7-dimethyl-2,3,4,5-tetrahydro-1H-3-benzazepine, reference compound], the results for the Ki on D-2 receptor and at dopamine D-1 receptor were 1670 nM and 4 nM, respectively. Further, the minimal effective dose with rats (sc (subcutaneous)) was 0.1 mg/kg.

Turning to `CN1CCc2cc(Cl)c(O)cc2C(C2CCCC2)C1` (stereo not drawn) [D, reference compound], the values for the minimal effective dose with rats (po (per oral)) and in the data set on rats (sc (subcutaneous)) were over 30 mg/kg and 3 mg/kg, respectively.

As to `Cc1cc2c(cc1O)C(C1CCCCC1)CN(C)CC2` (stereo not drawn) [E, reference compound], the results for the inhibitory constant (Ki) on D-2 receptor and at dopamine D-1 receptor were 3610 nM and 48 nM, respectively. In addition, the minimal effective dose in the data set on rats (po (per oral)) was 10 mg/kg; in the data set with rats (sc (subcutaneous)), 3 mg/kg. In the data set with rat, the “Toxicity, rat” value is reported as “Lethal at 300 mpk”.

Turning to `Cc1cc2c(cc1O)C(C1CCCC1)CN(C)CC2` (stereo not drawn) [F, reference compound], the figures for the Ki on D-2 receptor and at dopamine D-1 receptor were 1050 nM and 44 nM, respectively. Besides, in the data set with rat, the “Toxicity, rat” value was “Lethal at 300 mpk”.

In the case of `CC1=C([C@H]2CN(C)CCc3cc(Cl)c(O)cc32)CCC1` [H, (R)-7-chloro-8-hydroxy-3-methyl-1-(2-methyl-1-cyclopentenyl)-2,3,4,5-tetrahydro-1H-3-benzazepine], the Ki on D-2 receptor amounted to 358 nM; on dopamine D-1 receptor it was 0.43 nM. Moreover, the minimal effective dose in the data set on rats (po (per oral)) was 5 mg/kg; with rats (po, at 6 hours), 25 mg/kg; with squirrel monkeys it was 2 mg/kg; in the data set on squirrel monkeys (at 4 hours), 10 mg/kg. Moreover, the “Toxicity, rat” value in the data set with rat is “Non-toxic at 150 mpk”.

Consider `CC1=C([C@@H]2CN(C)CCc3cc(Cl)c(O)cc32)CCC1` [J, (S)-7-chloro-8-hydroxy-3-methyl-1-(2-methyl-1-cyclopentenyl)-2,3,4,5-tetrahydro-1H-3-benzazepine], for which the inhibition constant Ki amounted to 3690 nM on D-2 receptor and 15 nM at dopamine D-1 receptor. In the data set with rats (po (per oral)), the minimal effective dose was over 30 mg/kg.

In the case of `CN1CCc2cc(Cl)c(O)cc2[C@H](C2=CCCCC2)C1` [L, (S)-7-chloro-1-(1-cyclohexenyl)-8-hydroxy-3-methyl-2,3,4,5-tetrahydro-1H-3-benzazepine], the Ki on D-2 receptor came out at 2080 nM; at dopamine D-1 receptor, 23 nM. The minimal effective dose in the data set with rats (po (per oral)) is over 30 mg/kg.

As for `CN1CCc2cc(Cl)c(O)cc2[C@@H](C2=CCCCC2)C1` [M, (R)-7-chloro-1-(1-cyclohexenyl)-8-hydroxy-3-methyl-2,3,4,5-tetrahydro-1H-3-benzazepine], the Ki at D-2 receptor is 1090 nM; on dopamine D-1 receptor, 0.87 nM. Also, the minimal effective dose in the data set on rats (po (per oral)) was 10 mg/kg. In addition, the “Toxicity, rat” value in the data set on rat is recorded as “Secretions at 300 mpk”.

As to `CC(C)=C(C)C1CN(C)CCc2cc(Cl)c(O)cc21` (stereo not drawn) [P], the Ki at D-2 receptor was found to be 554 nM; on dopamine D-1 receptor, 2.8 nM. For the same compound, in the data set with rats (po (per oral)), the minimal effective dose is 10 mg/kg.
